We go through five molecules from US7612082B2, “Prostaglandin EP4 antagonists” (Allergan, Inc., priority 2004, dated 2009).

pEC50: −log10 of the molar value.

The target of one assay is T1, hDP (Homo sapiens, UniProt Q13258).
T1 construct: expressed in transfected cells; host or cells: HEK (by analogy HEK-293(EBNA))
T1 sequence (Q13258 1-359): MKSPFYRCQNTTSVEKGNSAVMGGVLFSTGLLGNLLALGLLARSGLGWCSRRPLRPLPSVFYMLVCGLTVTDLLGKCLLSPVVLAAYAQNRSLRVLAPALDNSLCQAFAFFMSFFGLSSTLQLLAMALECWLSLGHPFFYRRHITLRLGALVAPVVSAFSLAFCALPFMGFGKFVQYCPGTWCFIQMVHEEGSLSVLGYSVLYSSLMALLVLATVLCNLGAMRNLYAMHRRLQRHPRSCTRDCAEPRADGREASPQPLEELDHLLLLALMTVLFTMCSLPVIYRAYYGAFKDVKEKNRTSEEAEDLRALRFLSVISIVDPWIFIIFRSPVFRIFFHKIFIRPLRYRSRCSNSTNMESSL
Nature of the assay: Calcium signal (FLIPR) assay, hDP (HEK). Format: cell-based. As to conditions: for Kb: antagonism of standard agonist BW245C, HEK cells coexpress chimeric Gqs5. The method, then:
(§1) Cells were then washed twice with HBSS-HEPES buffer (Hanks Balanced Salt Solution without bicarbonate and phenol red, 20 mM HEPES, pH 7.4) using a Denley Cellwash plate washer (Labsystems; Franklin, Mass.). After 45-60 min of dye-loading in the dark using the calcium-sensitive dye Fluo-4 AM, at a final concentration of 2 μM, plates were washed four times with HBSS-HEPES buffer to remove excess dye and leaving 100 μl buffer in each well. Plates were then placed into a FLIPR™ instrument and were allowed to equilibrate at 37° C. Drug solution was added in a 50 μl volume to each well to give the desired final concentration. Cells were excited with an Argon laser at 488 nm, and emission was measured through a 510-570 nm bandwidth emission filter (FLIPR™, Molecular Devices, Sunnyvale, Calif.). The peak increase in fluorescence intensity was recorded for each well. […] A similar analysis was carried out for the other prostaglandin receptors, and for compound 2.

Another assay concerns the target T2, hTP (Homo sapiens, UniProt P21731).
T2 construct: expressed in transfected cells; host or cells: HEK (by analogy HEK-293(EBNA))
T2 sequence (P21731 1-343): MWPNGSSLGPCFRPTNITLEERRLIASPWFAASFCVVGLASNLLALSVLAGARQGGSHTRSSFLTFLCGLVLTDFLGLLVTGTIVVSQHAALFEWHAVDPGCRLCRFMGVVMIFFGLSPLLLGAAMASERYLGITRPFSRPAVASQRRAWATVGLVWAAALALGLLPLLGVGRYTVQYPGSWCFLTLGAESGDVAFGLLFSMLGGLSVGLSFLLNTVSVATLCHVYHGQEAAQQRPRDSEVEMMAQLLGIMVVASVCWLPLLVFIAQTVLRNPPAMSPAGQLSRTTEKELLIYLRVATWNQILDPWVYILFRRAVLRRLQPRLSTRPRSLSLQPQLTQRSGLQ
The assay is described as follows: Calcium signal (FLIPR) assay, hTP (HEK). Type of assay: cell-based. The conditions noted are these: for Kb: antagonism of standard agonist U-46619, HEK cells. How it is done: as §1

In a further assay the target is T3, human EP4 receptor (Homo sapiens, UniProt P35408).
T3 construct: expressed in transfected cells; host or cells: HEK-293(EBNA)
T3 sequence (P35408 whole entry): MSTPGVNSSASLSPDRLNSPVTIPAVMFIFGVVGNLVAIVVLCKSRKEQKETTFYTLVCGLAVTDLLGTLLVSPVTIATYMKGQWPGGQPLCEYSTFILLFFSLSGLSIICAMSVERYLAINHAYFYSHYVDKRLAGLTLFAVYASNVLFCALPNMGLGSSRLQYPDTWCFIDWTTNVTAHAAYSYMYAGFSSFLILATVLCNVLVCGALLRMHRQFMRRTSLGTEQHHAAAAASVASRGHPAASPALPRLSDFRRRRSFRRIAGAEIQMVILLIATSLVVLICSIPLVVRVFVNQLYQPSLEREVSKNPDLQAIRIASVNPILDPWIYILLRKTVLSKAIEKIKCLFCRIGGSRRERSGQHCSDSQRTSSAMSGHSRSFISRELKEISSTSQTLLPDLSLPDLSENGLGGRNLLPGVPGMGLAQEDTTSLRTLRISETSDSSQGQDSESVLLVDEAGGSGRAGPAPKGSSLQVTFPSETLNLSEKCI
The assay is described as follows: Effect on Prostaglandin E2 induced calcium signal (FLIPR), hEP4 (HEK). Format: cell-based. The method, then: (§2) Cells were then washed twice with HBSS-HEPES buffer (Hanks Balanced Salt Solution without bicarbonate and phenol red, 20 mM HEPES, pH 7.4) using a Denley Cellwash plate washer (Labsystems; Franklin, Mass.). After 45-60 min of dye-loading in the dark using the calcium-sensitive dye Fluo-4 AM, at a final concentration of 2 μM, plates were washed four times with HBSS-HEPES buffer to remove excess dye and leaving 100 μl buffer in each well. Plates were then placed into a FLIPR™ instrument and were allowed to equilibrate at 37° C. […] The peak increase in fluorescence intensity was recorded for each well.

The target of a further assay is T4, hIP (Homo sapiens, UniProt P43119).
T4 construct: expressed in transfected cells; host or cells: HEK (by analogy HEK-293(EBNA))
T4 sequence (P43119 whole entry): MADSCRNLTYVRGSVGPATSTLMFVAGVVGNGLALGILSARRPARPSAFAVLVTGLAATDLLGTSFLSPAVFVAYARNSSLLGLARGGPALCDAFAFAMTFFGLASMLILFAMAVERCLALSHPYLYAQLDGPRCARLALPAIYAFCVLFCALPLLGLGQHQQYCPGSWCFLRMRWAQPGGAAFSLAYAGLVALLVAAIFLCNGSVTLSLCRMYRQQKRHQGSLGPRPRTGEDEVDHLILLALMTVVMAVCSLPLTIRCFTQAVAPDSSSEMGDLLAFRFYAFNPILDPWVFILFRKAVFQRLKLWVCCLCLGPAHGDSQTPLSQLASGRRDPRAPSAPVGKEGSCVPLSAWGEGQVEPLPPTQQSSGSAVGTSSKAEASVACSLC
Nature of the assay: Calcium signal (FLIPR) assay, hIP (HEK). The conditions noted are these: antagonism of standard agonist Carbacyclin; HEK cells. Type of assay: cell-based. How it is done: as §2

The next assay deals with T5, hEP1 (Homo sapiens, UniProt P34995).
T5 construct: expressed in transfected cells; host or cells: HEK (by analogy HEK-293(EBNA))
T5 sequence (P34995 1-402): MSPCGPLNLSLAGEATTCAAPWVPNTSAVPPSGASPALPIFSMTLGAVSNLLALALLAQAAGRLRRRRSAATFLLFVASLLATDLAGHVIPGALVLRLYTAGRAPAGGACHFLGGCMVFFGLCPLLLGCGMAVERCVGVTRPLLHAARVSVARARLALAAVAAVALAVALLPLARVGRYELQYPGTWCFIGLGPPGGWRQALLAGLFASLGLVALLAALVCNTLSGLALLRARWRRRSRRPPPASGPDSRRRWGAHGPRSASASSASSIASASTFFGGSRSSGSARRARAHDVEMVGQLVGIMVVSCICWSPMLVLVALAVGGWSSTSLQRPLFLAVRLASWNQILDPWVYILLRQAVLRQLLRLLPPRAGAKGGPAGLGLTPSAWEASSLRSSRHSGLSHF
Nature of the assay: Calcium signal (FLIPR) assay, hEP1 (HEK). Type of assay: cell-based. The method, then:
as §1

Another assay concerns the target T6, hEP3A (Homo sapiens, UniProt P43115).
T6 construct: expressed in transfected cells; host or cells: HEK (by analogy HEK-293(EBNA))
T6 sequence (P43115 1-390): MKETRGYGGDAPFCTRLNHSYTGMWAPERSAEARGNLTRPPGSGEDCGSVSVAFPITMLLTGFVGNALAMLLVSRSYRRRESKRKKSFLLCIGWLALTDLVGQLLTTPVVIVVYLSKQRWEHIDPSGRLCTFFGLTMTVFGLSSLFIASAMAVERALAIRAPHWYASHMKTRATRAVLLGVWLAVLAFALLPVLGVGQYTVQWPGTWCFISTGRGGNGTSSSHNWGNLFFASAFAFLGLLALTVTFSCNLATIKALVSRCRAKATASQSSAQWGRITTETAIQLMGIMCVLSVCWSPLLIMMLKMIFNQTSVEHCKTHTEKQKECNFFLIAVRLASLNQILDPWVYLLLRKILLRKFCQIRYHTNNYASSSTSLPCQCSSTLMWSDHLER
Nature of the assay: Calcium signal (FLIPR) assay, hEP3A (HEK). Type of assay: cell-based. The method, then: as §2

The target in the next assay is T7, hFP (Homo sapiens, UniProt P43088).
T7 construct: expressed in transfected cells; host or cells: HEK (by analogy HEK-293(EBNA))
T7 sequence (P43088 whole entry): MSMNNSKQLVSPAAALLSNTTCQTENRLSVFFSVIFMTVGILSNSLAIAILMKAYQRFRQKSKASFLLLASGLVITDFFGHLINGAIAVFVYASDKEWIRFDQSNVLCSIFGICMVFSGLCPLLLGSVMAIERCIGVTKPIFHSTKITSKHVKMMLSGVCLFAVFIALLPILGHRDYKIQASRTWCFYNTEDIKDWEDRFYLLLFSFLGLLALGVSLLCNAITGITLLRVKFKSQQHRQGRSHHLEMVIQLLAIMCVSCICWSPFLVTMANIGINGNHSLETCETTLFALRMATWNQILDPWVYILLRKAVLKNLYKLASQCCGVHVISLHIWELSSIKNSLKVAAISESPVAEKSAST
Nature of the assay: Calcium signal (FLIPR) assay, hFP (HEK). Type of assay: cell-based. How it is done: as §2

Assay [1] in a line: Capsule or suppository given daily to patient suffering from cancer (Example 27). Type of assay: in vivo, human. How it is done: A capsule or suppository comprising compound 1 is administered daily to a patient suffering from cancer.
In a further assay the target is T8, hEP2 (Homo sapiens, UniProt P43116).
T8 construct: expressed in transfected cells; host or cells: HEK (by analogy HEK-293(EBNA))
T8 sequence (P43116 whole entry): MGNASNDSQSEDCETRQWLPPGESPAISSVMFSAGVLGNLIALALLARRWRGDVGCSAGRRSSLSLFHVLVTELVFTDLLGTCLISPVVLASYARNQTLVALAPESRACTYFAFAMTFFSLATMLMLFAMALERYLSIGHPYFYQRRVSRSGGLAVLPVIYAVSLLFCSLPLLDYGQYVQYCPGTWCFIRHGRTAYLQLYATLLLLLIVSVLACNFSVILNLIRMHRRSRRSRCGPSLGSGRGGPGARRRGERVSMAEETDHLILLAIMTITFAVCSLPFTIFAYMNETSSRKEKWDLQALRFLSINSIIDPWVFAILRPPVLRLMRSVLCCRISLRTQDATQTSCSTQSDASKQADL
Nature of the assay: Calcium signal (FLIPR) assay, hEP2 (HEK). Type of assay: cell-based. The method, then:
as §2

Assay [2] can be described thus: Capsule given daily to patient suffering from osteoporosis (Example 25). Format: in vivo, human. How it is done: A capsule comprising compound 2 is administered daily to a patient suffering from osteoporosis.
A short description of assay [3]: Tablet given to person suffering from migraine headache (Example 26). Format: in vivo, human. As to conditions: person suffering from a migraine headache. The method, then:
A tablet comprising compound 2 is administered to a person suffering from a migraine headache.

On to `O=C(O)CCCCCCC1C(=O)NC(=O)N1CCC(O)C1CCCCC1` (stereo not shown) [BW245C, reference compound], for which the pEC50 at hDP (agonist potency, calcium signal, cells coexpress chimeric Gqs5, read-out: Standard agonist hDP (HEK)) was 8.22.
`CN(CC(=O)Nc1c2c(nc3c1CCC3)CCCC2)Cc1ccccc1` [Compound 1]: the Kb is above 10 µM at hTP; above 10 µM at hDP; 0.101 µM at human EP4 receptor; above 10 µM on hIP; above 10 µM on hEP1; above 10 µM on hEP3A. The Kb at hFP and on hEP2 was above 10 µM each time. The “Patient's condition” value in assay [1] is listed as “Improvement in the patient's condition occurs”.
For `CN(CC(=O)Nc1c2c(nc3ccccc13)CCC2)Cc1ccccc1` [Compound 2], the Kb was above 10 µM on hTP; above 10 µM on hDP; 0.172 µM on human EP4 receptor; above 10 µM at hIP; above 10 µM on hEP1; above 10 µM at hEP3A. Also, the Kb on hFP and at hEP2 was above 10 µM throughout. The Bone density result in assay [2] is “Increase in bone density or reduction in bone density loss occurs”. Moreover, the Pain result in [3] is on record as “Significantly less pain is experienced by the patient”.
Turning to `CCCCC[C@H](O)/C=C/[C@@H]1[C@@H](C/C=C\CCCC(=O)O)[C@H]2CO[C@@H]1C2` [Compound U-46619, U-46619, reference compound], on hTP (agonist potency, calcium signal, read-out: Standard agonist hTP (HEK)), the pEC50 was 9.52.
For `CCCCC[C@H](O)/C=C/[C@H]1[C@H](O)CC(=O)[C@@H]1C/C=C\CCCC(=O)O` [PGE2, Prostaglandin E2, reference compound], at hEP1 (agonist potency, calcium signal, read-out: Standard agonist hEP1 (HEK)), the pEC50 is 9.52.
